Usually DC50 stands for the concentration giving 50% degradation. By Dmax is commonly meant the greatest extent of degradation seen.

Seven molecules from patent US12559506B2, “Indazole based compounds and associated methods of use” (Arvinas Operations, Inc., priority 2021, dated 2026) can be followed below.

One experiment addresses T1, G2019S LRRK2 (Homo sapiens, UniProt Q5S007, G2019S).
T1 construct: expressed in transfected cells; host or cells: HEK293 (ATCC CRL-1573), transient transfection, mammalian expression vector with ubiquitin promoter
The experiment in a line: LRRK2 degradation assay, HiBit-tagged G2019S LRRK2 expressed from plasmid in HEK293 cells (Nano-Glo Dual-Luciferase). Format: cell-based. The conditions noted are these: 24 hours. The essentials:
(§1)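 HEK293 cells co-transfected with C-terminal HiBiT-tagged LRRK2 (WT or G2019S, ubiquitin promoter) and firefly luciferase, then dosed 24 h at 37 °C. HiBiT/firefly ratio normalized to DMSO median; DC50 and Dmax from per-plate curve fits, six replicates over two days.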

In the next experiment the target is T2, wildtype LRRK2 (Homo sapiens, UniProt Q5S007).
T2 construct: expressed in transfected cells; host or cells: HEK293 (ATCC CRL-1573), transient transfection, mammalian expression vector with ubiquitin promoter
T2 sequence (Q5S007 whole entry): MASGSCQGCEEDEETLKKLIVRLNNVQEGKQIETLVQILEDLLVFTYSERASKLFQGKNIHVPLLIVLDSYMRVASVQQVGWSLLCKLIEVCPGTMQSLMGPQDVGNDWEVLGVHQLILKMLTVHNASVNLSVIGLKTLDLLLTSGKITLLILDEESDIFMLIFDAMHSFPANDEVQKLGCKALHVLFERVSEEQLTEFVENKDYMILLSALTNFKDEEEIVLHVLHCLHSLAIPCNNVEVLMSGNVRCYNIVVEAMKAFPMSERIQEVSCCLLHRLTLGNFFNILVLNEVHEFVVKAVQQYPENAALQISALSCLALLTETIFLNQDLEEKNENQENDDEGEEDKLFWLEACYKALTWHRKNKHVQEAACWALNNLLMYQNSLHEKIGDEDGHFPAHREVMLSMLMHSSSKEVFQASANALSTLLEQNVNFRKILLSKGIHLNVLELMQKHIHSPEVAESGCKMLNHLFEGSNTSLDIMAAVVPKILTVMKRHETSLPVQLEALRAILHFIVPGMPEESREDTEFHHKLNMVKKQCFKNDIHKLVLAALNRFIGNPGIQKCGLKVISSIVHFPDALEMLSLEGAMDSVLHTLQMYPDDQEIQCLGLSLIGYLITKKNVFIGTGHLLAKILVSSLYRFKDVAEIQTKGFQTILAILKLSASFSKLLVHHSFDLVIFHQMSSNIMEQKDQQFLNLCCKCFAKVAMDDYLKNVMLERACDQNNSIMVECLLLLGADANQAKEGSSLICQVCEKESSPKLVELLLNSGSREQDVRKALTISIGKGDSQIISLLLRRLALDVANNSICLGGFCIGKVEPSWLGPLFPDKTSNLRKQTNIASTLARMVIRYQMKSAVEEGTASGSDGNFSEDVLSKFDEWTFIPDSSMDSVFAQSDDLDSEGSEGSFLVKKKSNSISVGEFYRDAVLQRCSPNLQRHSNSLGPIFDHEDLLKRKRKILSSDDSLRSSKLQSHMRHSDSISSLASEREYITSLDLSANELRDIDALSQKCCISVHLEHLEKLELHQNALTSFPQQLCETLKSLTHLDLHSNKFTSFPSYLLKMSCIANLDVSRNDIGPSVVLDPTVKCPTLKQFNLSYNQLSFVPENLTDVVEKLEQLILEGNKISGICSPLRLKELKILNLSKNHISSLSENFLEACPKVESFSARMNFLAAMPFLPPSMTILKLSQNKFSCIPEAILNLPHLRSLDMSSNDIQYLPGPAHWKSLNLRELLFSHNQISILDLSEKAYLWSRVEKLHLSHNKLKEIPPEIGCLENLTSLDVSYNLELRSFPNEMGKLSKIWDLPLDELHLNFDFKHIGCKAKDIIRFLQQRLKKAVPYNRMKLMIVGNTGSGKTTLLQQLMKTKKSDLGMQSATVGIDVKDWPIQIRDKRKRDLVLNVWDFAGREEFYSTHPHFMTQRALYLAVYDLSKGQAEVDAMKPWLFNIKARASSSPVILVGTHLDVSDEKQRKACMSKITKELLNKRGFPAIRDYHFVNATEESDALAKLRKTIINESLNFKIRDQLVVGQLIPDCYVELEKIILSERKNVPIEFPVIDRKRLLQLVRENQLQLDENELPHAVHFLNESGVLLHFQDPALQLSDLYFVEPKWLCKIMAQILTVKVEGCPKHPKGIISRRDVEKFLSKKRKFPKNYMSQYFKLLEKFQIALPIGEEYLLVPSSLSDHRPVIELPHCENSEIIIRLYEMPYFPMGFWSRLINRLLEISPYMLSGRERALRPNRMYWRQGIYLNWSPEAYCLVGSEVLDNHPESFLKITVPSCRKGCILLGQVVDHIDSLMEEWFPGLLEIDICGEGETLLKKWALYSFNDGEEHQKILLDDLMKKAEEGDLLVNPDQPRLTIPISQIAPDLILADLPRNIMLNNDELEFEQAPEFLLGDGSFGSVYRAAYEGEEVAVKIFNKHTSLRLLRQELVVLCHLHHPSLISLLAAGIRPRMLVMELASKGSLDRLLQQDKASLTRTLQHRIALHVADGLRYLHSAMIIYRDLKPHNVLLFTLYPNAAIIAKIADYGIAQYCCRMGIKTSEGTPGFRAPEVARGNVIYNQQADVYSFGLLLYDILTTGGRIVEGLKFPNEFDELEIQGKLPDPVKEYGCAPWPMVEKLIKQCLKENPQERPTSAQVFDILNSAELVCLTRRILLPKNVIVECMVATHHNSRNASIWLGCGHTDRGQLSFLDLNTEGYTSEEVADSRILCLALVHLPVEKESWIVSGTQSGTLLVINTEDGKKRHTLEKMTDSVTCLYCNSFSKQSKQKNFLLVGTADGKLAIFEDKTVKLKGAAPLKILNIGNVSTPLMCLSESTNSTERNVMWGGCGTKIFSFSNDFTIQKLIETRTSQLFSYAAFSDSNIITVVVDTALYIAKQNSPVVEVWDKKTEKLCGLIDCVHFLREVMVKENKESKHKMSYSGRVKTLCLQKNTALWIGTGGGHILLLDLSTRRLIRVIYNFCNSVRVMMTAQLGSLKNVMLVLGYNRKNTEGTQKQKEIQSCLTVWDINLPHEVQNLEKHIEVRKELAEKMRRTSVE
The experiment in a line: LRRK2 degradation assay, HiBit-tagged wildtype LRRK2 expressed from plasmid in HEK293 cells (Nano-Glo Dual-Luciferase). It counts as cell-based. The conditions noted are these: 24 hours; for Dmax: read-out: **WT Dmax (%); for DC50: read-out: *WT DC50. The essentials:
as §1
For orientation: HiBiT is a short tag that completes a luciferase, so light tracks the accessible tagged protein.

The mark [1] stands for this setting: HiBit-tagged G2019S LRRK2, HEK293 cells.
Where [2] appears, read: HiBit-tagged wildtype LRRK2, HEK293 cells.
Where [3] appears, read: HiBit-tagged G2019S LRRK2 in HEK293 cells.
[4] abbreviates: HiBit-tagged wildtype LRRK2 in HEK293 cells.

SMILES strings stand for the structures. Like-named read-outs stand apart in the source and are kept apart here.

T1 sequence (Q5S007 whole entry G2019S): as the sequence (Q5S007 whole entry) above, with G2019S counted along it

As for `CC1(Oc2ccc3[nH]nc(-c4cc(N5CC[C@@H](CN6CCN(CC7CCN(c8ccc9c(c8)C(=O)N(C8CCC(=O)NC8=O)C9=O)CC7)CC6)C5)ncn4)c3c2)CC1` (stereo partly drawn) [Compound 167, 2-(2,6-dioxo-3-piperidyl)-5-[4-[[4-[[(3S)-1-[6-[5-(1-methylcyclopropoxy)-1H-indazol-3-yl]pyrimidin-4-yl]pyrrolidin-3-yl]methyl]piperazin-1-yl]methyl]-1-piperidyl]isoindoline-1,3-dione], the half-maximal degradation concentration (DC50) on G2019S LRRK2 (setting [1]) and at wildtype LRRK2 (setting [2]) was < 10 nM throughout. In addition, the Dmax at G2019S LRRK2 (setting [1]) and on wildtype LRRK2 (setting [2]) was 50 to 70% each time.

In the case of `CC1(Oc2ccc3[nH]nc(-c4ccnc(N5CC(CCC6CCN(CC7CCN(c8ccc9c(c8)C(=O)N(C8CCC(=O)NC8=O)C9=O)CC7)CC6)C5)c4)c3c2)CC1` (stereo not shown) [Compound 165, 2-(2,6-dioxo-3-piperidyl)-5-[4-[[4-[2-[1-[4-[5-(1-methylcyclopropoxy)-1H-indazol-3-yl]-2-pyridyl]azetidin-3-yl]ethyl]-1-piperidyl]methyl]-1-piperidyl]isoindoline-1,3-dione], on G2019S LRRK2 (setting [1]), the DC50 was < 10 nM and the greatest degradation seen (Dmax) lay in the range of 50 to 70%. Also, on wildtype LRRK2 (setting [2]), the maximal degradation (Dmax) is < 50% and the DC50 was < 10 nM.

`C[C@H]1CN(c2cc(-c3n[nH]c4ccc(OC5(C)CC5)cc34)ncn2)CCN1CCN1CCN(C(=O)C2CCN(c3ccc4c(c3)C(=O)N(C3CCC(=O)NC3=O)C4=O)CC2)CC1` (stereo partly drawn) [Compound 56, 2-(2,6-dioxo-3-piperidyl)-5-[4-[4-[2-[(2S)-2-methyl-4-[6-[5-(1-methylcyclopropoxy)-2H-indazol-3-yl]pyrimidin-4-yl]piperazin-1-yl]ethyl]piperazine-1-carbonyl]-1-piperidyl]isoindoline-1,3-dione]: the DC50 on G2019S LRRK2 (setting [3]) and on wildtype LRRK2 (setting [4]) was < 10 nM in each case. The greatest degradation seen (Dmax) at G2019S LRRK2 (setting [3]) and on wildtype LRRK2 (setting [4]) was ≥ 70% throughout.

Turning to `CC1(Oc2ccc3[nH]nc(-c4cc(N5CCC(O[C@@H]6CCN(CC7CCN(c8ccc9c(c8)C(=O)N(C8CCC(=O)NC8=O)C9=O)CC7)C6)CC5)ncn4)c3c2)CC1` (stereo partly drawn) [Compound 116, 2-(2,6-dioxo-3-piperidyl)-5-[4-[[(3R)-3-[[1-[6-[5-(1-methylcyclopropoxy)-1H-indazol-3-yl]pyrimidin-4-yl]-4-piperidyl]oxy]pyrrolidin-1-yl]methyl]-1-piperidyl]isoindoline-1,3-dione], on G2019S LRRK2 (setting [3]), the DC50 is < 10 nM and the Dmax was < 50%. On wildtype LRRK2 (setting [4]), the greatest degradation seen (Dmax) is 50 to 70% and the DC50 was < 10 nM.

In the case of `CC1(Oc2ccc3[nH]nc(-c4cc(N5CCC(CN6CC[C@H](OC7CCN(c8ccc9c(c8)C(=O)N(C8CCC(=O)NC8=O)C9=O)CC7)C6)CC5)ncn4)c3c2)CC1` (stereo partly drawn) [Compound 118, 2-(2,6-dioxo-3-piperidyl)-5-[4-[(3S)-1-[[1-[6-[5-(1-methylcyclopropoxy)-1H-indazol-3-yl]pyrimidin-4-yl]-4-piperidyl]methyl]pyrrolidin-3-yl]oxy-1-piperidyl]isoindoline-1,3-dione], at G2019S LRRK2 (setting [3]), the DC50 is 10 to 50 nM and the greatest degradation seen (Dmax) is < 50%. For the same molecule, on wildtype LRRK2 (setting [4]), the Dmax was in the range of 50 to 70% and the DC50 was in the range of 10 to 50 nM.

On to `CC1(Oc2ccc3[nH]nc(-c4ccnc(N5CCN(CC6CCN(C(=O)C7CCN(c8ccc9c(c8)C(=O)N(C8CCC(=O)NC8=O)C9=O)CC7)CC6)CC5)c4)c3c2)CC1` (stereo not shown) [Compound 91, 2-(2,6-dioxopiperidin-3-yl)-5-(4-{4-[(4-{4-[5-(1-methylcyclopropoxy)-1H-indazol-3-yl]pyridin-2-yl}piperazin-1-yl)methyl]piperidine-1-carbonyl}piperidin-1-yl)-2,3-dihydro-1H-isoindole-1,3-dione], for which, at G2019S LRRK2 (setting [3]), the DC50 is < 10 nM and the greatest degradation seen (Dmax) was in the range of 50 to 70%. In addition, on wildtype LRRK2 (setting [4]), the Dmax was 50 to 70% and the DC50 was < 10 nM.

Turning to `CC1(Oc2ccc3[nH]nc(-c4cc(N5CCN(C[C@@H]6CCN(CC7CCN(c8ccc9c(c8)C(=O)N(C8CCC(=O)NC8=O)C9=O)CC7)C(=O)C6)CC5)ncn4)c3c2)CC1` (single isomer, unassigned) [Compound 103], at G2019S LRRK2 (setting [3]), the 50% degradation concentration (DC50) was < 10 nM and the Dmax lay within 50 to 70%. On wildtype LRRK2 (setting [4]), the greatest degradation seen (Dmax) was 50 to 70% and the half-maximal degradation concentration (DC50) was < 10 nM.
